Results from US12606561B2, “Substituted pyrazolo[1,5-a][1,3,5]triazines as CDK inhibitors” (QURIENT CO., LTD., priority 2018, dated 2026).

Experiments:
[1] = molecular target: T1, CDK1/Cyclin B (Homo sapiens, UniProt P06493); experiment: Enzymatic assay for CDK1 (LANCE Ultra kinase assay, FRET based); assay type: biochemical; conditions: ATP at Km; read-out: CDK1 enzymatic activity IC50
T1 construct: purchased Invitrogen PR4768C
Summary of the method: (§1)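 FRET read-out: Eu-labeled anti-phospho-antibody binding a phosphorylated ULight peptide. Purified CDK–cyclin complex, ATP at Km.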

[2] = molecular target: T2, CDK2/Cyclin A (Homo sapiens, UniProt P24941); experiment: Enzymatic assay for CDK2 (LANCE Ultra kinase assay, FRET based); assay type: biochemical; conditions: ATP at Km
T2 construct: purchased Invitrogen PV6290
Summary of the method: (§2)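 Inhibition was measured at ATP Km with 68 nM ULight-MBP peptide and CDK2/Cyclin A ([…]) or CDK5/p25 ([…]), using 8-dose 4-fold compound dilutions from DMSO. Kinase reaction ran 60 min at 23° C, then Eu anti-phospho-MBP plus EDTA were added for another 60 min before the fluorescence read.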

[3] = molecular target: T3, CDK5/p25 (Homo sapiens, UniProt Q00535); experiment: Enzymatic assay for CDK5 (LANCE Ultra kinase assay, FRET based); assay type: biochemical; conditions: ATP at Km
T3 construct: purchased Invitrogen PR8543B
Summary of the method: as §2

[4] = molecular target: T4, CDK7/Cyclin H/MNAT1 (Homo sapiens, UniProt P50613); experiment: Enzymatic assay for CDK7 (LANCE Ultra kinase assay, FRET based); assay type: biochemical; conditions: for IC50: ATP at Km
T4 construct: purchased Invitrogen PR6749B
Summary of the method: as §1

[5] = test system: A2780; experiment: A2780 viability assay (CellTiter-Glo, 72 hours); assay type: cell-based; conditions: Homo sapiens; A2780 cells
Summary of the method: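 CellTiter-Glo luminescence read-out after 72 h compound exposure at 37° C, 5% CO2, duplicates. Seeding densities: MV4-11 1×10^4 cells/well, OVCAR-3 5×10^3, A2780 1×10^3. Dose range 0.0015 uM to 10 uM, added 24 h post-plating; DMSO control, final <0.1%.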

[6] = test system: OVCAR-3; experiment: OVCAR-3 viability assay (CellTiter-Glo, 72 hours); assay type: cell-based; conditions: Homo sapiens; OVCAR-3 cells
Method: Human […] cell line, MV4-11_(ATCC, Cat #CRL-9591), NSCLC (Non-small cell lung cancer) cell line H460 (ATCC, Cat #HTB-177), A2780 (ECACC, Cat #93112519) and OVCAR-3(ATCC, Cat #HTB-161) were obtained from ATCC. Cells were grown in RPMI-1640 media (Invitrogen, Cat #22400-089) supplemented with 10% FBS (Invitrogen, Cat #10099141) and 1% penicillin/streptomycin (Invitrogen, Cat #15070063) and cultured at 37° C., 5% CO2 in a humidified chamber. All cell lines were routinely tested for mycoplasma.
To effect of the CDK7 inhibitor to inhibit the growth of target cancer cells, viability assay were conducted a 72 hour time period. Briefly, the candidate cell line was plated in 96 well plate at the following density of cells respectively. 1×10^4 cells/well for MV4-11, 5×10^3 for H460 and OVCAR-3, and 1×10^3 for A2780. After 24 hours, the cells were treated with various concentrations of the compound (ranging from 0.0015 uM to 10 uM). DMSO solvent without compound served as a control and final DMSO concentration lest than 0.1%. After 72 hours of incubation at 37° C., 5% CO2 incubator, cells were analyzed for the viability using the CellTiter-Glo Luminescent Cell Viability Assay (Promega, Cat #G7570). All viability assays were performed in duplicate and Luminescence was read using an Envision (Perkin Elmer, USA). Data was analyzed using XLfit software.

T4 sequence (P50613 whole entry): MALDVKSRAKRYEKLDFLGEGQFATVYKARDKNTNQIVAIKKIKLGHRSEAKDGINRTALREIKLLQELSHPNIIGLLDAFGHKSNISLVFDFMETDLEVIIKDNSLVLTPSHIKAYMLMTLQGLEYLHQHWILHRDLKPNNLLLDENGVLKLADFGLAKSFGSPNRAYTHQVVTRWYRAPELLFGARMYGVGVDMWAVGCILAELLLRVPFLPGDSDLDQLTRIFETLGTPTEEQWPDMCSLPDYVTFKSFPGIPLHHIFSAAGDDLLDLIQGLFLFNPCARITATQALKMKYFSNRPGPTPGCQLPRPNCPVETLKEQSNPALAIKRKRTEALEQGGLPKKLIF
T4 sequence (P51946 whole entry partner): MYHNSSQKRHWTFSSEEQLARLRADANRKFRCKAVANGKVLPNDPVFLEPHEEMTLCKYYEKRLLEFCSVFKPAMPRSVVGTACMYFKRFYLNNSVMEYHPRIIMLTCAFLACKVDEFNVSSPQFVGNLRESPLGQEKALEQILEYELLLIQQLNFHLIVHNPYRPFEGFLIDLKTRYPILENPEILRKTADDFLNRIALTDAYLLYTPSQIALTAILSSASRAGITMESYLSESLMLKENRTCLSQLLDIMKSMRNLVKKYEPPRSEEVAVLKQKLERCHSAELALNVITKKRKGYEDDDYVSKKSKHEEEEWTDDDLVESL
T4 sequence (P51948 whole entry partner): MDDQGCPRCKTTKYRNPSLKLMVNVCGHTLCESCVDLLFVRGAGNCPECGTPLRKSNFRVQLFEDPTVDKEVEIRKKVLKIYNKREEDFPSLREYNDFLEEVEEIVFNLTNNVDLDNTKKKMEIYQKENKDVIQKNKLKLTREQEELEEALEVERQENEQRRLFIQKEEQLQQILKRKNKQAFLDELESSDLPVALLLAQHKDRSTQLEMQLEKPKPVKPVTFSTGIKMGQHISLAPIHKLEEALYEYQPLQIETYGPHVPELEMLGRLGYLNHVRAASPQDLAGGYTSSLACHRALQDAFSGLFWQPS
T3 sequence (Q00535 whole entry): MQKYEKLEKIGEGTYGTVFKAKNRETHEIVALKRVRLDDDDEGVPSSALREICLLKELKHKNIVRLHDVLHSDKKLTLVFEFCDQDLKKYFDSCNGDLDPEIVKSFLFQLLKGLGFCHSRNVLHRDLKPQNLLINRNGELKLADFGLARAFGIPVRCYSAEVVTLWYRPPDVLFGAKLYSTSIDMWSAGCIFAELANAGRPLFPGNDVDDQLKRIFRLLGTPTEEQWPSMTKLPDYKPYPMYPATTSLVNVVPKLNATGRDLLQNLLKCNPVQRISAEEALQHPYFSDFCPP
T3 sequence (Q15078 99-307 partner limits assumed): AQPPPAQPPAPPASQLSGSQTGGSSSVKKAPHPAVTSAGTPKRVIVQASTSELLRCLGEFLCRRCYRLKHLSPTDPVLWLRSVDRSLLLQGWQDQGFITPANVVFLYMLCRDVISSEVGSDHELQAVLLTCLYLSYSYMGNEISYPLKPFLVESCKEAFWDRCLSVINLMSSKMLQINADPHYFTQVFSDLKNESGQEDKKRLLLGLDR
T1 sequence (P06493 whole entry): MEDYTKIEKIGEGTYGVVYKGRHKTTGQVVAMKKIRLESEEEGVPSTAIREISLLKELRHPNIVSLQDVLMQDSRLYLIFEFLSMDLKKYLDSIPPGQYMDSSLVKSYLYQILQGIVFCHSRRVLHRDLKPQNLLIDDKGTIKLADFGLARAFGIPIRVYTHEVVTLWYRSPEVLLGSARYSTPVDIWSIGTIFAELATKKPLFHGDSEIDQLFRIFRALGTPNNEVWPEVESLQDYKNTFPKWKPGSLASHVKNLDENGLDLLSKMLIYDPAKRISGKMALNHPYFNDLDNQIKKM
T1 sequence (P14635 whole entry partner): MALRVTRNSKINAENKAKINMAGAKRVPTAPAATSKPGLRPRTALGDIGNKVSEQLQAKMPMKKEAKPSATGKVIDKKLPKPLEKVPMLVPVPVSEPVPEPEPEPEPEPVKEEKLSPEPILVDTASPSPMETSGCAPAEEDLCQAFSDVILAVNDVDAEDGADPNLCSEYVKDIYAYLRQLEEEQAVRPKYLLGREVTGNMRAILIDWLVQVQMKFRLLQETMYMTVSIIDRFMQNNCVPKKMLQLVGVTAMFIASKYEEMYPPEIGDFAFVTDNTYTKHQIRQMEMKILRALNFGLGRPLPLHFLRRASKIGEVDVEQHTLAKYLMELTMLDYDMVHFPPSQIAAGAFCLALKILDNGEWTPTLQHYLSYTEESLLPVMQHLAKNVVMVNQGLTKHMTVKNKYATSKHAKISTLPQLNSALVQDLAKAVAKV

SMILES | IC50 [1] | IC50 [2] | IC50 [3] | IC50 [4] | CDK1/CDK7: Selectivity of CDK7 inhibition over CDK1 inhibition [4] | CDK2/CDK7: Selectivity of CDK7 inhibition over CDK2 inhibition [4] | CDK5/CDK7: Selectivity of CDK7 inhibition over CDK5 inhibition [4] | IC50 [5] | IC50 [6]
CC(C)c1cnn2c(NCc3ccccc3-c3nccc4cc(NC(=O)/C=C/CN5CCOCC5)ccc34)nc(NC3CCC(C)(C)NC3)nc12 (stereo not drawn) [Compound 180] | > 1000 nM | > 1000 nM | > 1000 nM | < 100 nM | A (A indicates [fold] > 500) | A (A indicates [fold] > 500) | A (A indicates [fold] > 500) | < 1000 nM | < 1000 nM
C=C(F)C(=O)Nc1ccc2c(-c3ccccc3CNc3nc(N[C@@H]4CCCNC4)nc4c(C(C)C)cnn34)nccc2c1 [Compound 166] | > 1000 nM | > 1000 nM | > 1000 nM | < 100 nM | A (A indicates [fold] > 500) | A (A indicates [fold] > 500) | A (A indicates [fold] > 500) | < 1000 nM | > 10000 nM
C=C(F)C(=O)Nc1ccc2c(-c3ccccc3CNc3nc(NC[C@H]4CCNC[C@H]4O)nc4c(C(C)C)cnn34)nccc2c1 [Compound 158] | > 1000 nM | > 1000 nM | > 1000 nM | < 100 nM | A (A indicates [fold] > 500) | A (A indicates [fold] > 500) | A (A indicates [fold] > 500) | < 1000 nM | < 1000 nM
C=C(F)C(=O)Nc1ccc2c(-c3ccccc3CNc3nc(NC[C@H]4CCN(CC)C[C@@H]4O)nc4c(C(C)C)cnn34)nccc2c1 [Compound 169] | > 1000 nM | > 1000 nM | > 1000 nM | < 100 nM | B (B indicates 50 < [fold] ≤ 500) | B (B indicates 50 < [fold] ≤ 500) | B (B indicates 50 < [fold] ≤ 500) | < 1000 nM | < 1000 nM
C=CC(=O)Nc1ccc2c(-c3ccccc3CNc3nc(NC4CCC(C)(C)NC4)nc4c(C(C)C)cnn34)nccc2c1 (stereo not drawn) [Compound 178] | > 1000 nM | > 1000 nM | > 1000 nM | < 100 nM | A (A indicates [fold] > 500) | A (A indicates [fold] > 500) | A (A indicates [fold] > 500) | < 1000 nM | < 1000 nM
CC(C)c1cnn2c(NCc3ccccc3-c3nccc4cc(NC(=O)/C=C/CN(C)C)ccc34)nc(N3CC4(COC4)C3)nc12 [Compound 108] | > 1000 nM | > 1000 nM | > 1000 nM | 100 to 1000 nM | C (C indicates [fold] ≤ 50) | C (C indicates [fold] ≤ 50) | C (C indicates [fold] ≤ 50) | < 1000 nM | < 1000 nM
C=C(F)C(=O)Nc1ccc2c(-c3ccccc3CNc3cc(NC4CCC(OC)CC4)nc4c(C(C)C)cnn34)nccc2c1 (stereo not drawn) [Compound 81] | > 1000 nM | > 1000 nM | > 1000 nM | 100 to 1000 nM | B (B indicates 50 < [fold] ≤ 500) | B (B indicates 50 < [fold] ≤ 500) | B (B indicates 50 < [fold] ≤ 500) | < 1000 nM | < 1000 nM
C=C(F)C(=O)Nc1ccc2c(-c3ccccc3CNc3nc(NCC4CCNCC4O)nc4c(C(C)C)cnn34)nccc2c1 (stereo not drawn) [Compound 160] | > 1000 nM | > 1000 nM | > 1000 nM | < 100 nM | A (A indicates [fold] > 500) | A (A indicates [fold] > 500) | A (A indicates [fold] > 500) | < 1000 nM | < 1000 nM
C=C(F)C(=O)Nc1ccc2c(-c3ccccc3CNc3nc(-c4cccc(OC5CCNC5)c4)nc4c(C(C)C)cnn34)nccc2c1 (racemic) [Compound 87] | > 1000 nM | > 1000 nM | > 1000 nM | < 100 nM | A (A indicates [fold] > 500) | A (A indicates [fold] > 500) | A (A indicates [fold] > 500) | < 1000 nM | < 1000 nM
C=C(F)C(=O)Nc1ccc2c(-c3ccccc3CNc3nc(N[C@H]4CCCNC4)nc4c(C(C)C)cnn34)nccc2c1 [Compound 161] | > 1000 nM | > 1000 nM | > 1000 nM | < 100 nM | A (A indicates [fold] > 500) | A (A indicates [fold] > 500) | A (A indicates [fold] > 500) | < 1000 nM | < 1000 nM
C=CC(=O)Nc1ccc2c(-c3ccccc3CNc3nc(N4C5CCC4CC(O)C5)nc4c(C(C)C)cnn34)nccc2c1 (stereo not drawn) [Compound 114] | > 1000 nM | > 1000 nM | > 1000 nM | < 100 nM | A (A indicates [fold] > 500) | A (A indicates [fold] > 500) | A (A indicates [fold] > 500) | 1000 to 10000 nM | < 1000 nM
C=C(F)C(=O)Nc1ccc2c(-c3ccccc3CNc3nc(NC4CC(OC)C4)nc4c(C(C)C)cnn34)nccc2c1 (stereo not drawn) [Compound 99] | > 1000 nM | > 1000 nM | > 1000 nM | 100 to 1000 nM | B (B indicates 50 < [fold] ≤ 500) | B (B indicates 50 < [fold] ≤ 500) | B (B indicates 50 < [fold] ≤ 500) | < 1000 nM | < 1000 nM
C=C(F)C(=O)Nc1ccc2c(-c3ccccc3CNc3nc(N4CO[C@H]5CN(C)CC[C@@H]5C4)nc4c(C(C)C)cnn34)nccc2c1 [Compound 165] | > 1000 nM | > 1000 nM | > 1000 nM | 100 to 1000 nM | B (B indicates 50 < [fold] ≤ 500) | B (B indicates 50 < [fold] ≤ 500) | B (B indicates 50 < [fold] ≤ 500) | < 1000 nM | < 1000 nM
CC(C)c1cnn2c(NCc3ccccc3-c3nccc4cc(NC(=O)/C=C/CN(C)C)ccc34)nc(NC3CCS(=O)(=O)CC3)nc12 [Compound 107] | > 1000 nM | > 1000 nM | > 1000 nM | 100 to 1000 nM | B (B indicates 50 < [fold] ≤ 500) | B (B indicates 50 < [fold] ≤ 500) | B (B indicates 50 < [fold] ≤ 500) | < 1000 nM | < 1000 nM
CC(C)c1cnn2c(NCc3ccccc3-c3nccc4cc(NC(=O)/C=C/CN(C)C)ccc34)nc(NC3CC4CCC(C3)N4C)nc12 (stereo not drawn) [Compound 130] | > 1000 nM | > 1000 nM | > 1000 nM | < 100 nM | A (A indicates [fold] > 500) | A (A indicates [fold] > 500) | A (A indicates [fold] > 500) | < 1000 nM | 1000 to 10000 nM
